Source: PubChem BioAssay (NCI)
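Assay format: 96-well plates, 48-hour exposure. TGI marks complete inhibition of growth.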

Assays:
Assay in all cases: NCI anticancer screen, dose series, 48 h
EKVX NSCLC = tested on: EKVX NSCLC
RXF 393 renal = tested on: RXF 393 renal
MALME-3M melanoma = tested on: MALME-3M melanoma
SF-268 CNS = tested on: SF-268 CNS
MOLT-4 leukemia = tested on: MOLT-4 leukemia
HL-60(TB) leukemia = tested on: HL-60(TB) leukemia
SF-539 CNS = tested on: SF-539 CNS
NCI/ADR-RES ovarian = tested on: NCI/ADR-RES ovarian
RPMI-8226 leukemia = tested on: RPMI-8226 leukemia
SK-OV-3 ovarian = tested on: SK-OV-3 ovarian
K-562 leukemia = tested on: K-562 leukemia
MDA-MB-231 breast = tested on: MDA-MB-231 breast
T-47D breast = tested on: T-47D breast
OVCAR-3 ovarian = tested on: OVCAR-3 ovarian
SNB-19 CNS = tested on: SNB-19 CNS
SK-MEL-2 melanoma = tested on: SK-MEL-2 melanoma
TK-10 renal = tested on: TK-10 renal
SK-MEL-5 melanoma = tested on: SK-MEL-5 melanoma
HOP-92 NSCLC = tested on: HOP-92 NSCLC
CCRF-CEM leukemia = tested on: CCRF-CEM leukemia
SW-620 colon = tested on: SW-620 colon
HCC-2998 colon = tested on: HCC-2998 colon
PC-3 prostate = tested on: PC-3 prostate
UACC-62 melanoma = tested on: UACC-62 melanoma
A549 NSCLC = tested on: A549 NSCLC
MCF7 breast = tested on: MCF7 breast
786-0 renal = tested on: 786-0 renal
CAKI-1 renal = tested on: CAKI-1 renal
SNB-75 CNS = tested on: SNB-75 CNS
LOX IMVI melanoma = tested on: LOX IMVI melanoma
NCI-H522 lung = tested on: NCI-H522 lung
NCI-H460 lung = tested on: NCI-H460 lung
NCI-H23 lung = tested on: NCI-H23 lung
SR leukemia = tested on: SR leukemia
MDA-N = tested on: MDA-N
DU-145 prostate = tested on: DU-145 prostate
ACHN renal = tested on: ACHN renal
MDA-MB-435 = tested on: MDA-MB-435
M14 melanoma = tested on: M14 melanoma
SK-MEL-28 melanoma = tested on: SK-MEL-28 melanoma
HS 578T breast = tested on: HS 578T breast
HCT-15 colon = tested on: HCT-15 colon
HOP-62 NSCLC = tested on: HOP-62 NSCLC
HT29 colon = tested on: HT29 colon
UACC-257 melanoma = tested on: UACC-257 melanoma
SN12C renal = tested on: SN12C renal
OVCAR-8 ovarian = tested on: OVCAR-8 ovarian
SF-295 CNS = tested on: SF-295 CNS
UO-31 renal = tested on: UO-31 renal
COLO 205 colon = tested on: COLO 205 colon
BT-549 breast = tested on: BT-549 breast
IGROV1 ovarian = tested on: IGROV1 ovarian
HCT-116 colon = tested on: HCT-116 colon
OVCAR-5 ovarian = tested on: OVCAR-5 ovarian
NCI-H226 lung = tested on: NCI-H226 lung
A498 renal = tested on: A498 renal
U251 CNS = tested on: U251 CNS
KM12 colon = tested on: KM12 colon
OVCAR-4 ovarian = tested on: OVCAR-4 ovarian

Measured: TGI

CSc1c(C(=O)Nc2ccc(Cl)cc2)c(N)nn1-c1ccccc1
> 43.2 µM: 786-0 renal
> 23.8 µM: OVCAR-4 ovarian
> 86.3 µM: SNB-75 CNS
> 100 µM: EKVX NSCLC | MALME-3M melanoma | SF-268 CNS | MOLT-4 leukemia | HL-60(TB) leukemia | SF-539 CNS | NCI/ADR-RES ovarian | RPMI-8226 leukemia | SK-OV-3 ovarian | K-562 leukemia | MDA-MB-231 breast | T-47D breast | OVCAR-3 ovarian | SNB-19 CNS | SK-MEL-2 melanoma | TK-10 renal | SK-MEL-5 melanoma | HOP-92 NSCLC | CCRF-CEM leukemia | SW-620 colon | HCC-2998 colon | PC-3 prostate | UACC-62 melanoma | A549 NSCLC | MCF7 breast | CAKI-1 renal | LOX IMVI melanoma | NCI-H522 lung | NCI-H460 lung | NCI-H23 lung | SR leukemia | MDA-N | DU-145 prostate | ACHN renal | MDA-MB-435 | M14 melanoma | SK-MEL-28 melanoma | HS 578T breast | HCT-15 colon | HOP-62 NSCLC | HT29 colon | UACC-257 melanoma | SN12C renal | OVCAR-8 ovarian | SF-295 CNS | UO-31 renal | COLO 205 colon | BT-549 breast | IGROV1 ovarian | HCT-116 colon | OVCAR-5 ovarian | NCI-H226 lung | A498 renal | U251 CNS | KM12 colon
> 87.4 µM: RXF 393 renal
